Read-outs that look alike come from different tables or passages of the source.

This test concerns HCV 1b_Huh-Luc/Neo-ET cell line persistently expressing a bicistronic genotype 1b replicon in Huh 7 cells. Kind of test: HCV replicon assay (luciferase readout, 72 h). It is filed as cell-based, HCV genotype 1b. Particulars: Hepatitis C virus. Summed up: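 EC50 values come from a four-parameter fit of luciferase signal as % of untreated control, repeated across several determinations. The signal is from the HCV 1b_Huh-Luc/Neo-ET replicon line, dosed in triplicate one day post-plating and incubated 72 h before Bright-Glo readout.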
For orientation: In antiviral work, replicon cells carry a viral genome segment that copies itself.

Where [1] appears, read: Huh-7, 72 h, read-out: Inhibition of HCV genotype 1b.

As to `COC(=O)N[C@@H](C(=O)N1CCC[C@H]1c1ncc(-c2ccc(C#Cc3ccc(-c4cnc([C@@H]5CCCN5C(=O)[C@H](NC(=O)N5CCC[C@@H]5C)c5ccccc5)[nH]4)cc3)cc2)[nH]1)c1ccccc1` [Compound 261], the EC50 under setting [1] is under 1 nM.
As for `CN(C)[C@@H](C(=O)N1CCC[C@H]1c1ncc(-c2ccc(C#Cc3ccc(-c4cnc([C@@H]5CCCN5C(=O)[C@@H](c5ccccc5)N(C)C)[nH]4)cc3)cc2)[nH]1)c1ccccc1` [Compound 160], the EC50 under setting [1] was under 1 nM.
Consider `CNC(=O)N[C@@H](C(=O)N1CCC[C@H]1c1ncc(-c2ccc(C#Cc3ccc(-c4cnc([C@@H]5CCCN5C(=O)[C@H](NC(=O)C5CC5)c5ccccc5)[nH]4)cc3)cc2)[nH]1)c1ccccc1` [Compound 997], for which the EC50 under setting [1] is under 1 nM.
With `COC[C@H](NC(=O)OC)C(=O)N1CCC[C@H]1c1nc2ccc(C#Cc3ccc(-c4cnc([C@@H]5CCCN5C(=O)[C@@H](NC(=O)OC)C(C)C)[nH]4)cc3)cc2[nH]1` [Compound 1243], the EC50 (Huh-7, read-out: Inhibition of HCV genotype 1b) is under 1 nM.

(Values after patent US20130296311A1, “INHIBITORS OF HCV NS5A” (PRESIDIO PHARMACEUTICALS, INC., priority 2010, published 2013).)
